Usually Kd stands for the equilibrium constant for the complex coming apart. A high value points to a looser complex.

Positions of bridges follow the written chain, without caps; N, C: chain ends. Non-standard residues stand in square brackets, D forms with d. Residues, ends and D or L forms follow the SMILES beside them. *: point of attachment. FITC = O=C1OC2(c3ccc(O)cc3Oc3cc(O)ccc32)c2ccc(NC(=S)*)cc21; R8 = C=CCCCCCC[C@@](C)(N)C(=O)O; S5 = C=CCCC[C@](C)(N)C(=O)O; AEEA = NCCOCCOCC(=O)O

Three molecules from publication PMC8682738, “Constrained peptides mimic a viral suppressor of RNA silencing” (Nucleic Acids Research, 2021) can be followed below.

Assay [1] deals with K562 cells. The experiment in a line: Live cell confocal microscopy. The class given is cell-based, human. To be noted: fluorescein-labeled peptide 1 μM, 30 min, 37°C. As to the method: Non-adherent K562 cells were counted and collected in 1.5 ml Eppendorf tubes at 30 000 cells per tube. After a wash, cells were re-suspended in 200 μl of phenol-red free media containing 5% FCS and fluorescein-labeled peptides (c(peptide) = 1 μM, t = 30 min) in the Eppendorf tubes at 37°C with vertical rotation to avoid cell pelleting. After incubation, cells were washed once with phenol-red free media, re-suspended again in the same media, and transferred into the wells of an 8-chamber μ-slide (Ibidi). Cells were immediately imaged at 37°C with an SP5 Laser Scanning Confocal Microscope (Leica). Fluorescein was excited with an argon ion laser at wavelength of 488 nm and fluorescence was detected in the range 505–530 nm.

Assay [2] relates to Dicer processing of pre-miR-21. The experiment in a line: Dicer cleavage assay of pre-miR-21. Type of assay: biochemical. The following applies: pre-miR-21 40 nM; for inhibition of pre-miR-21 maturation by Dicer (in words): Dicer 4 U·ml^−1, peptide 10–600 nM. As for the experimental part: Next, RhDicer (0.5 U·μl^−1 solution; Genlantis) was diluted in buffer (20 mM Tris·HCl, pH 6.8, 100 mM NaCl, 1 mM MgCl2, 1 mM DTT, 5 mM β-mercaptoethanol, 10% glycerol, 0.1% Triton-X 100) to a concentration of 40 U·ml^−1 and then added to the peptide/RNA solutions (final RhDicer concentration: 4 U·ml^−1). The reaction solution was incubated for 150 min at 37°C, then denatured for 5 min at 70°C, and stored at 4°C. Subsequently, a 1:10 dilution in H2O of the reaction solution was performed and added to a Poly(A) Tailing and reverse transcription solution as previously reported ([62]). The samples were incubated at 42°C for 1 h before subsequent inactivation for 5 min at 95°C and cooling to 4°C. Next, qRT-PCR of each sample was performed using the primers miR21–5p–RV1 ([…]), miR21-5p-FW1 ([…]), and miRNA-RT1 ([…]) in a StepOnePlus™ real-time PCR system (Thermo Fisher Scientific). Briefly, 1 μl of template DNA solution was added to a solution of Luna® Universal Probe qPCR Master Mix (New England Biolabs) with a final primer concentration of 125 nM in 20 μl per sample. Samples were initially denatured for 5 min at 95°C followed by 45 temperature cycles of 15 s at 95°C and 30 s at 66°C. The quantification was done using miR-21-5p standard curves. To visualize the inhibitory potential of each peptide the normalized abundance of mature miR-21 (%) is plotted against the peptide concentration (nM).

In assay [3] the test system is ds miR-21. The assay can be described thus: EMSA with ds miR-21. The class given is binding. The following applies: peptide 6 μM, ds miR-21 3 μM. As for the experimental part: (§1) Electrophoretic mobility shift assays (EMSAs) were performed using a Bio-Rad Mini-Protean gel system paired with a direct current (DC) power source (PowerPac™ HC, Bio-Rad). Typically, 6 μl solutions containing ds RNA (c = 3 μM) and fluorescein-labeled peptide (c = 6 μM) were incubated in binding buffer (10 mM Tris (pH 8.0), 0.5 mM EDTA, 12.5% glycerol and 150 mM KCl) at 4°C for 1 h. After incubation, bound RNA was resolved from peptide-free RNA using 10% non-denaturing polyacrylamide gels at 120 V in running buffer (25 mM Tris (pH 8.0), 200 mM glycine, 20 mM NaCl) at 4°C for 1 h. Visualization of fluorescent gel-bound species was conducted using a Typhoon Trio + fluorescence scanner (GE Healthcare Life Sciences). For nucleic acid visualization, gels were stained using 2 μl of SYBR™ gold nucleic acid gel dye (Molecular Probes) in 20 ml of TAE buffer (40 mM Tris, 1 mM EDTA, 20 mM acetic acid) for 45 min at RT before being visualized using a FluorChem™ gel documentation system (Alpha Innotech). To assess B3 binding to different ds RNA sequences (Supplementary Figure S20), 6 μl solutions containing hairpin RNA (c = 1 μM) and fluorescein-labeled B3 (c = 2 μM) were incubated in binding buffer (TAE and 10% glycerol) at RT for 1 h, and then resolved using 15% non-denaturing polyacrylamide gels (acrylamide/bis-acrylamide (19:1) in TAE) at 150 V in running buffer (TAE) at 4°C for 1.5 h. Visualization of fluorescent gel-bound species was conducted using a Bio-Rad ChemiDoc (Bio-Rad). Subsequently, gels were stained with SYBR™ gold nucleic acid gel dye (Invitrogen) as described above and visualized using the same imaging system. To assess B3 binding to pre–miR-21 (Supplementary Figure S24), the RNA was prepared at a fixed concentration (c = 1 μM) and incubated with varying concentrations of fluorescein-labeled B3 (c = 0–5 μM) in binding buffer (TAE and 10% glycerol) at RT for 1 h. […]
(In general: Mobility shift assays separate free from complexed probe on a gel.)

For assay [4], the target named is pal-RNA duplex. The experiment in a line: ITC of N-terminally acetylated peptides with pal-RNA duplex. Type of assay: binding. The following applies: for fold increased affinity compared to linear peptide wt33: unlabeled analogs, pal-RNA. As to the method: Isothermal titration calorimetry (ITC) was conducted using a MicroCal VP-ITC (Malvern Panalytical). Before measurement, oligonucleotide and peptide samples were dissolved in PBS and degassed using a ThermoVac (Malvern Panalytical) and heated to 30°C. N-terminally acetylated peptides (c = 3–12 μM) were then transferred into the sample cell and oligonucleotides (c = 12–72 μM) were transferred into the syringe. 35 Injections per measurement were performed at 30°C (8 μl injection volume, 2 s injection time, 180 s spacing, high feedback mode) with an initial delay of 60 s and a stirring speed of 307 rpm. Measurements were performed in triplicate. Using the MicroCal LLC ITC software (Origin; OriginLab Corporation), the heat associated with each injection was calculated by integrating the area under the curve in microcalories per second [μca/s] versus time [min] for each injection and then normalized to concentration. A ‘single set of identical binding sites’ model was used to fit the binding curves from which thermodynamic binding parameters (ΔG, ΔH, ΔS, N and Kd) were obtained.

The subject of assay [5] is yeast transfer RNAs (t-RNAs). The assay can be described thus: EMSA with transfer RNA. To be noted: fluorescein-labeled peptide 3 μM, t-RNA 9 μM. Type of assay: binding, baker's yeast. As for the experimental part: as §1, with “h.” for “h. Visualization of fluorescent gel-bound species was conducted using a Bio-Rad ChemiDoc (Bio-Rad). Subsequently, gels were stained with SYBR™ gold nucleic acid gel dye (Invitrogen) as described above and visualized using the same imaging system. To assess B3 binding to pre–miR-21 (Supplementary Figure S24), the RNA was prepared at a fixed concentration (c = 1 μM) and incubated with varying concentrations of fluorescein-labeled B3 (c = 0–5 μM) in binding buffer (TAE and 10% glycerol) at RT for 1 h.”

The mark [6] stands for this setting: N-terminally acetylated peptide, PBS pH 7.4, 30°C, single set of identical binding sites model, triplicate, errors 1σ.

On to `CC(C)C[C@@H]1NC(=O)[C@H](CCC(=O)O)NC(=O)[C@H](CO)NC(=O)[C@@](C)(NC(=O)[C@H](CCCNC(=N)N)NC(=O)[C@H](CCC(N)=O)NC(=O)[C@H](CCC(=O)O)NC(=O)[C@H](CO)NC(=O)[C@@H]2CCCN2C(=O)[C@H](CO)NC(=O)[C@H](CCCCN)NC(=O)[C@H](Cc2c[nH]cn2)NC(=O)[C@]2(C)CCCC=CCCCCCC[C@@](C)(NC(=O)[C@H](Cc3c[nH]cn3)NC(=O)[C@H](CCCNC(=N)N)NC(=O)[C@H](CCCCN)NC(=O)[C@H](CCCNC(=N)N)NC(=O)[C@H](CCC(N)=O)NC(=O)[C@H](C)NC(=O)[C@H](CCC(N)=O)NC(=O)[C@H](CCCCN)NC(=O)[C@H](CCCCN)NC(=O)COCCOCCNC(=S)Nc3ccc4c(c3)C(=O)OC43c4ccc(O)cc4Oc4cc(O)ccc43)C(=O)N[C@@H](CC(C)C)C(=O)N[C@@H](CC(N)=O)C(=O)N[C@@H](CCCNC(=N)N)C(=O)N[C@@H](CCCCN)C(=O)N[C@@H](CCC(=O)O)C(=O)N[C@@H](CCCNC(=N)N)C(=O)N2)CCCC=CCCC[C@@](C)(C(=O)N[C@@H](Cc2c[nH]cn2)C(=O)N[C@@H](C)C(=O)N[C@@H](CCCNC(=N)N)C(N)=O)NC1=O` [D1] ({FITC-AEEA}-KKQAQRKRH[R8]LNRKER[S5]HKSPSEQR[S5]SEL[S5]HAR-NH2; staple 10-17, 26-30), for which the “cell permeability by live cell confocal microscopy” value (from here on “cell permeability”) in assay [1] is listed as “confirming their cell permeability”. In assay [2], the “inhibition of pre-miR-21 maturation by Dicer (in words)” value was “showed only small effects”. Besides, the “binding to ds miR-21 in EMSA” value in assay [3] was “did not show binding”.

For `CC(C)C[C@H](NC(=O)[C@]1(C)CCCC=CCCC[C@](C)(NC(=O)[C@H](CCC(=O)O)NC(=O)[C@H](CO)NC(=O)[C@@H]2CCCN2C(=O)[C@H](CO)NC(=O)[C@H](CCCCN)NC(=O)[C@H](Cc2c[nH]cn2)NC(=O)CNC(=O)[C@H](CCCNC(=N)N)NC(=O)[C@]2(C)CCCC=CCCC[C@](C)(NC(=O)[C@H](CCCCN)NC(=O)[C@H](Cc3c[nH]cn3)NC(=O)[C@H](CCCNC(=N)N)NC(=O)[C@H](CCCCN)NC(=O)[C@H](CCCNC(=N)N)NC(=O)[C@H](CCC(N)=O)NC(=O)[C@H](C)NC(=O)[C@H](CCC(N)=O)NC(=O)[C@H](CCCCN)NC(=O)[C@H](CCCCN)NC(=O)COCCOCCNC(=S)Nc3ccc4c(c3)C(=O)OC43c4ccc(O)cc4Oc4cc(O)ccc43)C(=O)N[C@@H](CC(N)=O)C(=O)N[C@@H](CCCNC(=N)N)C(=O)N[C@@H](CCCCN)C(=O)N2)C(=O)N[C@@H](CCCNC(=N)N)C(=O)N[C@@H](CCCNC(=N)N)C(=O)N[C@@H](CO)C(=O)N1)C(=O)N[C@@H](Cc1c[nH]c2ccccc12)C(=O)N[C@@H](Cc1c[nH]cn1)C(=O)N[C@@H](C)C(=O)N[C@@H](CCCNC(=N)N)C(N)=O` [B3] ({FITC-AEEA}-KKQAQRKRHK[S5]NRK[S5]RGHKSPSE[S5]RRS[S5]LWHAR-NH2; staple 11-15, 24-28), the Kd in assay [4] (setting [6]) turned out to be 70 nM; in assay [4] (pal-RNA duplex) it was 70 ± 1 nM. Besides, in assay [4], the “fold increased affinity compared to linear peptide wt33” value is on record as 17 fold. For the same molecule, in assay [5], the “binding to yeast t-RNA mixture in EMSA” value is on record as “did not observe binding”. Also, the “cell permeability” value in assay [1] was “confirming their cell permeability”. Besides, the “inhibition of pre-miR-21 maturation by Dicer (in words)” value in assay [2] was “inhibited in a concentration-dependent manner”. Moreover, the IC50 in assay [2] (recombinant Dicer 4 U·ml^−1, 150 min, 37°C, N-terminally acetylated peptide, qRT-PCR of miR-21, triplicate, read-out: Half-maximal Dicer inhibition) is ~50 nM. In addition, the “binding to ds miR-21 in EMSA” value in assay [3] is on record as “formation of peptide/RNA complexes”.

For `CC(C)C[C@@H]1NC(=O)[C@@](C)(NC(=O)[C@H](CO)NC(=O)[C@H](CCCNC(=N)N)NC(=O)[C@H](CCCNC(=N)N)NC(=O)[C@H](CCC(N)=O)NC(=O)[C@H](CCC(=O)O)NC(=O)[C@H](CO)NC(=O)[C@@H]2CCCN2C(=O)[C@H](CO)NC(=O)[C@H](CCCCN)NC(=O)[C@H](Cc2c[nH]cn2)NC(=O)CNC(=O)[C@H](CCCNC(=N)N)NC(=O)[C@H](CCC(=O)O)NC(=O)[C@H](CCCCN)NC(=O)[C@H](CCCNC(=N)N)NC(=O)[C@H](CC(N)=O)NC(=O)[C@]2(C)CCCC=CCCCCCC[C@@](C)(NC(=O)[C@H](CCC(N)=O)NC(=O)[C@H](CCCCN)NC(=O)[C@H](CCCCN)NC(=O)COCCOCCNC(=S)Nc3ccc4c(c3)C(=O)OC43c4ccc(O)cc4Oc4cc(O)ccc43)C(=O)N[C@@H](CCC(N)=O)C(=O)N[C@@H](CCCNC(=N)N)C(=O)N[C@@H](CCCCN)C(=O)N[C@@H](CCCNC(=N)N)C(=O)N[C@@H](Cc3c[nH]cn3)C(=O)N[C@@H](CCCCN)C(=O)N2)CCCC=CCCC[C@@](C)(C(=O)N[C@@H](CCCNC(=N)N)C(N)=O)NC(=O)[C@H](Cc2c[nH]cn2)NC(=O)[C@H](Cc2c[nH]c3ccccc23)NC1=O` [C1] ({FITC-AEEA}-KKQ[R8]QRKRHK[S5]NRKERGHKSPSEQRRS[S5]LWH[S5]R-NH2; staple 4-11, 28-32), in assay [4] (setting [6]), the Kd turned out to be 180 nM. Besides, in assay [4], the “fold increased affinity compared to linear peptide wt33” value was determined as 7 fold. The “binding to yeast t-RNA mixture in EMSA” value in assay [5] is recorded as “did not observe binding”. In addition, the “cell permeability” value in assay [1] is listed as “confirming their cell permeability”. Further, the “binding to ds miR-21 in EMSA” value in assay [3] is “formation of peptide/RNA complexes”.
